According to ChEMBL document CHEMBL1156236, “Trypanoside, anti-tuberculosis, leishmanicidal, and cytotoxic activities of tetrahydrobenzothienopyrimidines” (Bioorg Med Chem, 2010):
≈ marks a conversion by molar mass, not a printed value. Calls of active or inactive are those of the source. The calls are words filed in the database; no cut-off is given here.

How the values were obtained:
[1] = (§1) Cytotoxicity against african green monkey Vero cells after 72 hrs by MTS assay; details: chlorocebus sabaeus, Vero cells
[2] = tested on: Mycobacterium tuberculosis; test: Antitubercular activity against Mycobacterium tuberculosis H37Rv ATCC 27294 after 7 days by microplate alamar blue assay; type: functional; details: H37Rv ATCC 27294, 168 h
[3] = Selectivity index, ratio of IC50 for african green monkey Vero cells to MIC for Mycobacterium tuberculosis H37Rv ATCC 27294 by microplate alamar blue assay; type: functional
[4] = tested on: Mycobacterium tuberculosis; test: Antitubercular activity against Mycobacterium tuberculosis H37Rv ATCC 27294 after 7 days by low oxygen recovery assay; type: functional; details: H37Rv ATCC 27294, 168 h
[5] = tested on: Leishmania amazonensis; test: (§2) Antileishmanial activity against Leishmania amazonensis LV79 MPRO/BR/72/M1841 amastigotes infected BALB/c mouse assessed as lesion diameter at 33 mg/kg/day, intralesionally administered after 1 week post infection 3 times per week for 6 weeks measured on week 7 relative to control; type: functional, organism-based
[6] = tested on: Leishmania amazonensis; test: as §2, with “assessed as reduction of parasite burden at 33” for “assessed as lesion diameter at 33”, “week 7 by fluorescence method relative to” for “week 7 relative to”; type: functional, organism-based; design: scale not given: the % may be the effect or the level left
[7] = tested on: Leishmania amazonensis; test: (§3) Antileishmanial activity against Leishmania amazonensis LV79 MPRO/BR/72/M1841 amastigotes infected BALB/c mouse assessed as lesion diameter at 33 mg/kg/day, intralesionally administered after 1 week post infection 3 times per week for 6 weeks measured on week 4 relative to control; type: functional, organism-based
[8] = tested on: Leishmania amazonensis; test: as §3, with “assessed as reduction of parasite burden at 33” for “assessed as lesion diameter at 33”, “week 4 by fluorescence method relative to” for “week 4 relative to”; type: functional, organism-based; design: scale not given: the % may be the effect or the level left
[9] = tested on: Leishmania amazonensis; test: Antileishmanial activity against Leishmania amazonensis LV79 MPRO/BR/72/M1841 amastigotes infected BALB/c mouse assessed as lesion diameter at 5 mg/kg/day, intralesionally administered after 1 week post infection 3 times per week for 6 weeks measured on week 7 relative to control; type: functional
[10] = tested on: NCI-H460; test: Cytotoxicity against human NCI-H460 cells; type: functional
[11] = Cytotoxicity against BALB/c mouse macrophages after 48 hrs by trypan blue dye exclusion method; type: cell-based; details: Macrophage
[12] = tested on: HT-29; test: Cytotoxicity against human HT-29 cells; type: functional
[13] = tested on: Vero; test: as §1; details: Chlorocebus sabaeus, Vero, 72 h
[14] = tested on: M14; test: Cytotoxicity against human M14 cells; type: functional
[15] = tested on: MCF7; test: Cytotoxicity against human MCF7 cells; type: functional
[16] = tested on: K562; test: Cytotoxicity against human K562 cells; type: functional
[17] = tested on: Trypanosoma cruzi; test: Antitrypanosomal activity against Trypanosoma cruzi tulahuen C4 trypomastigotes infected in african green monkey Vero cells assessed as CPRG cleavage after 120 hrs by microplate reader; type: functional, organism-based
[18] = Selectivity index, ratio of IC50 for african green monkey Vero cells to IC50 for Trypanosoma cruzi tulahuen C4; details: Vero cells
[19] = Selectivity index, ratio of IC50 for BALB/c mouse macrophages to IC50 for Leishmania amazonensis MHOM/BR/76/LTB-012
[20] = tested on: Trypanosoma cruzi; test: Antitrypanosomal activity against Trypanosoma cruzi tulahuen C4 trypomastigotes infected mouse assessed as decrease in parasite replication at 20 mg/kg/day, ip on days 6 to 11 days post infection after 6 days; type: functional, organism-based
[21] = Cytotoxicity against BALB mouse 3T3 cells; type: cell-based; details: BALB 3T3 cells
[22] = tested on: DU-145; test: Cytotoxicity against human DU145 cells; type: functional
[23] = tested on: Leishmania amazonensis; test: Antileishmanial activity against Leishmania amazonensis MHOM/BR/76/LTB-012 amastigotes infected BALB/c mouse macrophages after 48 hrs by MTT assay; type: functional, organism-based; details: MHOM/BR/76/LTB-012, 48 h

**Q.** Which results are given for `CO[C@H]1/C=C/O[C@@]2(C)Oc3c(C)c(O)c4c(O)c(c(/C=N/N5CCN(C)CC5)c(O)c4c3C2=O)NC(=O)/C(C)=C\C=C\[C@H](C)[C@H](O)[C@@H](C)[C@@H](O)[C@@H](C)[C@H](OC(C)=O)[C@@H]1C` [RIFAMPIN]?
**A.** selectivity ratio at 72 h [1]: 1080; MIC [2]: 0.1 µM (≈ 0.0823 µg/mL); Ratio IC50 [3]: 1080; MIC [4]: < 1.9 µM

**Q.** With MEGLUMINE ANTIMONATE as the compound, how does the Activity [5] read?
**A.** 2.2 mm

**Q.** What about the Activity [6] of the same compound?
**A.** 100%

**Q.** What about the Activity [7] of the same compound?
**A.** 2.1 mm

**Q.** And the Activity [8]?
**A.** 100%

**Q.** What about the Activity [9] of the same compound?
**A.** 4.7 mm

**Q.** With `C(=C\c1ccccc1)/C=N/Nc1ncnc2sc3c(c12)CCCC3` as the compound, how does the GI50 [10] read?
**A.** 2.1 µM

**Q.** What about the IC50 [11] of the same compound?
**A.** 1.7 µM

**Q.** What about the GI50 [12] of the same compound?
**A.** 8.2 µM

**Q.** And the IC50 [13]?
**A.** 20.9 µM

**Q.** What about the MIC [2] of the same compound?
**A.** 35 µM (≈ 11.7 µg/mL)

**Q.** What about the GI50 [14] of the same compound?
**A.** 4.6 µM

**Q.** And the GI50 [15]?
**A.** 2.1 µM

**Q.** And the GI50 [16]?
**A.** 1.6 µM

**Q.** What about the IC50 [17] of the same compound?
**A.** 1.4 µM

**Q.** And the “Ratio IC50” value [3]?
**A.** 0.1

**Q.** And the selectivity ratio [18]?
**A.** 14.6

**Q.** What about the “Ratio IC50” value [19] of the same compound?
**A.** 0.1

**Q.** What about the Activity [20] of the same compound?
**A.** inactive

**Q.** What about the GI50 [21] of the same compound?
**A.** 4.4 µM

**Q.** What about the GI50 [22] of the same compound?
**A.** 5.4 µM

**Q.** What about the IC50 [23] of the same compound?
**A.** 16.6 µM
